According to patent publication US8153784B2, “Imaging of enzyme activity” (The General Hospital Corporation, priority 2004, dated 2012):

Tests used:
[1] = biological target: T1, human myeloperoxidase (MPO) (Homo sapiens, UniProt P05164); conditions: in vitro settings; reference (9); cited from earlier work
T1 construct: purchased BioDesign Inc

[2] = Relaxivity of monomeric Gd complexes without enzyme; assay type: physicochemical; conditions: for r1p (0.47T, 40°) / r1p (1.5T, 25°): no HRP
Protocol: Stock solutions of compounds 1Gd and 2Gd were prepared by dissolving the corresponding complexes in DPBS buffer solution (pH 7.4) and were kept at −4° in the dark. Every stock solution was titrated by means of ICP-MS (Elemental Research Inc.).
(§1) Relaxation times at 0.47 T was obtained on a Bruker NMS-120 Minispec spectrometer using an inversion recovery sequence, with a TR=5T1, and 15 TI points evenly spaced up to 5T1.
(§2) Relaxation times at 1.5 T was measured on a 1.5 T GE Excite MR scanner utilizing an inversion recovery sequences with TR=2000 ms, TI=50, 75, 100, 150, 200, 250, 300, 350, 400, 500, 625, 750, 1000 ms. A fixed-size region of interest was drawn to obtain the signal intensity of the samples.
(§3) The data at 0.47 T and 1.5 T were fitted to the equation Ix=I0*(1−2e^[…]) to obtain T1, where I is the signal obtained at a certain time point TI, with I0 (total signal or magnetization) and T1 being fitted values.
(§4) The relaxivities of various polymerized products were measured using a minimum of four different gadolinium complex concentrations ranging from 2.5 mM to 0.01 mM. Horseradish peroxidase (HRP) was used in the proof-of-the-principle experiments. As used herein, the descriptors 1Gd^3+ and 2Gd^3+ refer to Gd^3+-chelated compounds 1 and 2, respectively. The synthesis of 1Gd^3+ and 2Gd^3+ are described in the Examples.

HRP = biological target: T2, HRP (Armoracia rusticana, UniProt P00433); assay: HRP effect over T1, well plate with different HRP amounts; assay type: biochemical, horseradish; conditions: for lowest enzyme activity level with detectable decrease in T1 / decrease in T1: 0.5 mM; for T1: C = 0.5 mM
T2 construct: purchased Sigma
T2 sequence (P00433 31-338): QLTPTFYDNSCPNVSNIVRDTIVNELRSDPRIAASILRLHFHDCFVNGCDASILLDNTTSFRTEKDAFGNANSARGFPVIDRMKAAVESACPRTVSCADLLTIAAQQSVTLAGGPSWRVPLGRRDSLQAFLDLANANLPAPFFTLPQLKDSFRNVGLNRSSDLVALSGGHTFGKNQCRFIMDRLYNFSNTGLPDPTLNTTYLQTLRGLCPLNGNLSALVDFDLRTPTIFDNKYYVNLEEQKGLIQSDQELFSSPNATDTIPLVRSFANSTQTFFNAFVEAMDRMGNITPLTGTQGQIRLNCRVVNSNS
Protocol: MR imaging was performed on a 1.5 T GE Excite whole body MR scanner using a 3 inch surface coil. T1-weighted images were obtained using a spin echo sequence with TR=500 ms, TE=11 ms, NEX=4.
To estimate the detection limit of these sensor substrates, a new well plate layout containing a fixed concentration of 1Gd^3+ (0.5 mM, row b1) and 2Gd^3+ (0.5 mM, row b2) supplemented with different HRP amounts (from left to right: 4, 0.4, 0.04, 0.004 U) was imaged (FIG. 10B). The use of 4 U/mL of enzyme yielded a decrease in T1 by 50 and 25% for compounds 1Gd^3+ and 2Gd^3+, respectively. Detectable decrease could be seen at enzyme specific activity levels as low as 0.04 U/mL. In this case the decrease was measured to be 15% for compound 1Gd^3+ and 12% for compound 2Gd^3+.

[3] = biological target: T3, horseradish peroxidase (HRP) (Armoracia rusticana, UniProt P00433); assay: HRP-mediated oligomerization of 1Gd^3+ and 2Gd^3+: relaxivity, MALDI-MS; assay type: biochemical; set-up: purchased Sigma; conditions: for increase in relaxivity in the presence of peroxidase: 96-well plate image, 4 units HRP, DPBS; for increase in [r1p]: 0.47T and 40° C.
T3 sequence (P00433 31-338): T2 sequence (P00433 31-338)
Protocol: as §1, §2, §3
Horseradish peroxidase was purchased from Sigma as a lyophilized powder that was dissolved in PBS buffer (4 mg/mL) and its activity was measured using substantially the same the methods described by Klebanoff, S. J.; Waltersdorph, A. M.; Rosen, H. Meth Enzymol. 1984 Vol. 105, p 399-403.
Oligomerization of compounds 1Gd^3+ and 2Gd^3+ was achieved by incubating the desired solution (0.5 mL) of monomer with an excess of H2O2 3% (2 μL) and HRP (1 μg≈4 Units) for 1 hour at 40° C. Both T1 and T2 were measured at two different field strengths: 0.47T and 1.5T, this last one using a clinical magnet (1.5 T Signa, GE).
as §4

T1 sequence (P05164 279-745 limits assumed): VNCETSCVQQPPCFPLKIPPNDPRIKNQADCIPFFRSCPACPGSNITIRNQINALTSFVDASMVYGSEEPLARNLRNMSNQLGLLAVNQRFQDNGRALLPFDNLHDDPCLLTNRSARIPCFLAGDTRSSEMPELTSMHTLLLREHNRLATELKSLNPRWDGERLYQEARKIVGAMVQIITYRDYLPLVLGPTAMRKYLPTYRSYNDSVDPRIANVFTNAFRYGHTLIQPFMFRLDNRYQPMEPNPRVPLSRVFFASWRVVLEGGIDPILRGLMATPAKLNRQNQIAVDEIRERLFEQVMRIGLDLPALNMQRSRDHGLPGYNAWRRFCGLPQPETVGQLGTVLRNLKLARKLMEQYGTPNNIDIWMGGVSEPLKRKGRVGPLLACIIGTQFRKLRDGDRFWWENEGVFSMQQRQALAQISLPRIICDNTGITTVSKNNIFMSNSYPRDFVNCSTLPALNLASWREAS
T1 sequence (P05164 165-273 limits assumed): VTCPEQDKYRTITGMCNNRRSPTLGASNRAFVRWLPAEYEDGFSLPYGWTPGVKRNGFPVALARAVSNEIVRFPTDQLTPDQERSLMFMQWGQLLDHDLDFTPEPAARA

Which “time of MPO activation and oligomerization to reach 90% completion” value [1] does the source give for `CC(C(=O)NCC(=O)NCCc1c[nH]c2ccc(O)cc12)N1CCN(CC(=O)[O-])CCN(CC(=O)[O-])CCN(CC(=O)[O-])CC1.[Gd+3]` (stereo not drawn) [5-HT-DOTA(Gd), Glycylmethyl DOTA(Gd) 5-Hydroxytryptamide] here?
The value was “about 15 minutes”.

Which results are given for `O=C([O-])CN(CCN(CC(=O)[O-])CC(=O)NCCc1c[nH]c2ccc(O)cc12)CCN(CC(=O)[O-])CC(=O)NCCc1c[nH]c2ccc(O)cc12.[Gd+3]` [2Gd^3+]?
r1p (0.47T, 40°) ([2]; H2O pH = 4.8): 4.5 mM⁻¹ s⁻¹; r1p (0.47T, 40°) ([2]; PBS pH = 7.4): ~4.3 mM⁻¹ s⁻¹; r1p (1.5T, 25°) ([2]; PBS pH = 7.4): 5.1 mM⁻¹ s⁻¹; r1 ([2]; well plate at 1.5T, pH 7.2, no enzyme (row 1)): 4.7 mM⁻¹ s⁻¹; lowest enzyme activity level with detectable decrease in T1 (HRP): 0.04 U/mL; decrease in T1 (HRP; 0.04 U/mL of enzyme): 12%; decrease in T1 (HRP; 4 U/mL of enzyme): 25%; T1 (HRP; HRP 0 U): 339 ms; T1 (HRP; HRP 4 10-1 U): 278 ms; T1 (HRP; HRP 4 10-2 U): 303 ms; T1 (HRP; HRP 4 10-3 U): 331 ms; T1 (HRP; HRP 4 U): 271 ms; time of MPO activation and oligomerization to reach 90% completion [1]: about 15 minutes; increase in relaxivity in the presence of peroxidase [3]: 30%; increase in [r1p] ([3]; HRP): 2.4 fold; increase in relaxivity ([3]; HRP, 1.5T, 25°, concentrations below 0.5 mM used for fitting): 1.4 fold; minimum increase in relaxivity ([3]; HRP, 1.5T, 25°, predicted from the obtained data): ≥ 30%; minimum relaxivity increase ([3]; pH=7.4 (PBS buffer), 0.47T, 'in an embodiment', enzyme not stated): ≥ 40%

Which results are given for `O=C([O-])CN(CCN(CC(=O)[O-])CC(=O)NCCc1ccc(O)cc1)CCN(CC(=O)[O-])CC(=O)NCCc1ccc(O)cc1.[Gd+3]` [1Gd^3+]?
r1p (0.47T, 40°) ([2]; H2O pH = 4.8): 4.6 mM⁻¹ s⁻¹; r1p (0.47T, 40°) ([2]; PBS pH = 7.4): ~4.3 mM⁻¹ s⁻¹; r1p (1.5T, 25°) ([2]; PBS pH = 7.4): 5.3 mM⁻¹ s⁻¹; lowest enzyme activity level with detectable decrease in T1 (HRP): 0.04 U/mL; decrease in T1 (HRP; 0.04 U/mL of enzyme): 15%; decrease in T1 (HRP; 4 U/mL of enzyme): 50%; T1 (HRP; HRP 0 U): 316 ms; T1 (HRP; HRP 4 10-1 U): 229 ms; T1 (HRP; HRP 4 10-2 U): 274 ms; T1 (HRP; HRP 4 10-3 U): 321 ms; T1 (HRP; HRP 4 U): 211 ms; increase in relaxivity in the presence of peroxidase [3]: 70%; increase in [r1p] ([3]; HRP): 3.7 fold; increase in relaxivity ([3]; HRP, 1.5T clinical MRI unit at 25°): 1.7 fold
